Measured values as given in PMC9975351 (Frontiers in Pharmacology, 2023).

What was measured:
CES1 = target: T1, CES1 (Homo sapiens, UniProt P23141); test: Incubation with recombinant CES1; format: in vitro ADME; details: 1 µM
T1 construct: purchased Cypex (Dundee, UK)
T1 sequence (P23141 18-567): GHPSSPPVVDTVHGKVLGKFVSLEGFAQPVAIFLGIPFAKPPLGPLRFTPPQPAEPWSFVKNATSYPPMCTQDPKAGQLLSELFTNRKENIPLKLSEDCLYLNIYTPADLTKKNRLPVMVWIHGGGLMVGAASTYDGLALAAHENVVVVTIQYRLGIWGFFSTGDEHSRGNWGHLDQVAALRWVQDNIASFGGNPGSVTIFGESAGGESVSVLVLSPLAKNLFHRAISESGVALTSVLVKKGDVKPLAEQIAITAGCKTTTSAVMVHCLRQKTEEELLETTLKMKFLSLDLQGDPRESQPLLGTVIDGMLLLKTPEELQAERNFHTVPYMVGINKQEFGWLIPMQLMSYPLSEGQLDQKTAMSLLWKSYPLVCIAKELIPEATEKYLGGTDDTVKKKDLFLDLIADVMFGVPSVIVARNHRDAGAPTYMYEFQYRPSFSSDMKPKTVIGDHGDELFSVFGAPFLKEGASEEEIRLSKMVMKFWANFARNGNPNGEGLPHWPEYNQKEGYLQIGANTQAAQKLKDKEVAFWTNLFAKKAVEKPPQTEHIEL
Experimental: (§1) All other generated metabolites area was less than 1% of the parent area/internal standard area. […] HY-17542 underwent deacetylation rapidly in HLM incubated with or without NADPH (Figures 4A, B). The calculated half-lives for NADPH-dependent metabolism and NADPH-independent degradation were 5.26 and 10.83 min, respectively. We incubated HY-17542 without HLM and NADPH to 180 min in the phosphate buffer condition. […] CES 1 or 2 was possible enzyme responsible for the deacetylation. […] HY-17542 metabolites in HLM incubated with NADPH are presented in Figures 4C, D. M1 and M3 were also detected from HY-17542 in a time-dependent manner.
(§2) FIGURE 4 Metabolic stability of HY-17542 in HLMs. (A) 1 µM of HY-17542 was incubated with HLMs in the presence or absence of NADPH and incubated with recombinant CES 1 or CES2. […] (C) Formation of M1 in the incubation of 1 µM of HY-17542 in HLMs with NADPH. (D) Formation of M3 in the incubation of 1 µM of HY-17542 in HLMs with NADPH. Data are presented as mean ± SD from three independent samples (n = 3). (E) Representative chromatogram of GRL0617 and its metabolites in the presence of a NADPH-generating system from QTOF MS analysis.

CES2 = target: T2, CES2 (Homo sapiens, UniProt O00748); test: Incubation with recombinant CES2; format: in vitro ADME; details: 1 µM
T2 construct: purchased Cypex (Dundee, UK)
T2 sequence (O00748 27-559): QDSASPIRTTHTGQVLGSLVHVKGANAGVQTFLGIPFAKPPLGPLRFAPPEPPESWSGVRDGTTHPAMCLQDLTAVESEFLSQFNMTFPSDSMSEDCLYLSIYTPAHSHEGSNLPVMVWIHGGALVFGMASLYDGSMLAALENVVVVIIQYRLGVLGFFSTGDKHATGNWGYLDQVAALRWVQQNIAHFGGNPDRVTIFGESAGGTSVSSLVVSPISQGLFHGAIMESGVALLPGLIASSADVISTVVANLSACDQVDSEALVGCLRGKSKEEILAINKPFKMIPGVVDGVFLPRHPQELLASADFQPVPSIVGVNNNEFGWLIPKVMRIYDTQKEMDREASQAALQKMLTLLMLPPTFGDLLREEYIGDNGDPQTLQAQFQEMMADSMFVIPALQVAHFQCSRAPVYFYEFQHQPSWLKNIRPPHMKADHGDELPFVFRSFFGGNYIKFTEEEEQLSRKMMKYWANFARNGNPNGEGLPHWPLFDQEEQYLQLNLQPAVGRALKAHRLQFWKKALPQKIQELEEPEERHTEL
Experimental: as §1, §2

[1] = format: physicochemical; details: human, microsomes, 3 h
Experimental: as §1

[2] = Metabolic stability and metabolite formation in pooled human liver microsomes with NADPH and/or UDPGA; format: in vitro ADME; details: human, microsomes, pH 7.4, Half-life
Experimental: Microsomal incubation was conducted in triplicate using 0.1 M potassium phosphate buffer (PPB, pH 7.4) in eight-well tube strips in an 8 × 12 rack (1.2 mL; VWR, Emeryville, CA, United States). […] The mixture was pre-incubated at 37°C with shaking at approximately 100 rpm for 5 min. UGT glucuronidation was performed with HLMs (1 mg/mL) and alamethicin (25 μg/mg microsomal protein) in a 100-mM PPB (pH 7.4) solution on ice for 15 min. […] CYP, UGT, and combined reactions were initiated by addition of the NADPH regenerating system, UDPGA (1 mM), and both, respectively. […] The incubation mixtures were then centrifuged at 2,000 × g and 4°C for 20 min, and the supernatants were analyzed by LC-QTOF HRMS.
The incubation mixtures were pre-incubated at 37°C in a shaking water bath at approximately 100 rpm for 5 min. Reactions were initiated by the addition of an NADPH-regenerating system. The reaction was terminated, centrifuged then analyzed using the same method described above.
(§3) In the microsomal stability analysis, degradation half-life (t½) values were calculated using the following equation: t½=0.693/k where k is the first-order degradation rate constant, estimated by one-phase exponential-decay non-linear regression of the degradation time-course data using Graph Pad Prism 8.0 (Graph Pad Software Inc., San Diego, CA, United States). In vitro metabolic stability parameters, microsomal intrinsic clearance (CLint,mic), apparent intrinsic clearance (CL′int), and hepatic clearance (CLh), were calculated according to the well-stirred model approach ([Pang and Rowland, 1977]; [Baranczewski et al., 2006]). The apparent kinetic parameters of GRL0617 metabolism were determined by fitting a one-enzyme Michaelis-Menten equation. […] All data are presented as mean ± SD. Data were compared between groups using the unpaired Student’s t-test. The significance level was set at p < 0.05, unless indicated otherwise.

not read [3] = substrate: Cc1ccc(N)cc1C(=O)N[C@H](C)c1cccc2ccccc12; test: not read; details: other: M1 formation, recombinant CYP2D6, 10 min; 95% CI in parentheses; pH 7.4; 37.0 °C
not read [4] = substrate: Cc1ccc(N)cc1C(=O)N[C@H](C)c1cccc2ccccc12; test: not read; format: in vitro ADME, human; details: other: M1 formation, recombinant CYP3A5, 10 min; 95% CI in parentheses; pH 7.4; 37.0 °C
Experimental: Reactions were conducted in triplicate using 0.1 M PPB (pH 7.4) in eight-well tube strips in an 8 × 12 rack. […] The mixture was pre-incubated at 37°C with shaking at approximately 100 rpm for 5 min. Reactions were initiated by the addition of the NADPH-regenerating system and quenched with 200 µL ice-cold acetonitrile containing 50 nM CBZ. The samples were centrifuged at 1,000 × g and 4°C for 20 min, and the supernatants were subjected to LC-QTOF HRMS. […] The reaction was incubated, initiated, terminated, centrifuged then analyzed using the same method described above.
as §3, with “Data were compared between groups using the unpaired Student’s t-test. The significance level was set at p < 0.05, unless indicated otherwise.” left out

CC(=O)Nc1ccc(C)c(C(=O)N[C@H](C)c2cccc3ccccc23)c1 [HY-17542, 5-[acetylamino]-2-methyl-N-[(1R)-1-(1-naphthalenyl)ethyl]benzamide]
Effect on HY-17542 concentration (CES1): did not affect HY-17542 concentration
HY-17542 concentration remaining (CES2): 88.01 ± 10.5%
Remaining compound [1]: 99.89 ± 7.69%
half-life at 1 µM [2]: 5.26 min
half-life at 1 µM ([2]; NADPH-independent degradation): 10.8 min

B1: CYP2D6 (Homo sapiens) (protein)
chain: MGLEALVPLAVIVAIFLLLVDLMHRRQRWAARYPPGPLPLPGLGNLLHVDFQNTPYCFDQLRRRFGDVFSLQLAWTPVVVLNGLAAVREALVTHGEDTADRPPVPITQILGFGPRSQGVFLARYGPAWREQRRFSVSTLRNLGLGKKSLEQWVTEEAACLCAAFANHSGRPFRPNGLLDKAVSNVIASLTCGRRFEYDDPRFLRLLDLAQEGLKEESGFLREVLNAVPVLLHIPALAGKVLRFQKAFLTQLDELLTEHRMTWDPAQPPRDLTEAFLAEMEKAKGNPESSFNDENLRIVVADLFSAGMVTTSTTLAWGLLLMILHPDVQRRVQQEIDDVIGQVRRPEMGDQAHMPYTTAVIHEVQRFGDIVPLGVTHMTSRDIEVQGFRIPKGTTLITNLSSVLKDEAVWEKPFRFHPEHFLDAQGHFVKPEAFLPFSAGRRACLGEPLARMELFLFFTSLLQHFSFSVPTGQPRPSHHGVFAFLVSPSPYELCAVPR
Km (not read [3]): 85.1 (69.4–107.8) µM

B2: CYP3A5 (Homo sapiens) (protein)
chain: MDLIPNLAVETWLLLAVSLVLLYLYGTRTHGLFKRLGIPGPTPLPLLGNVLSYRQGLWKFDTECYKKYGKMWGTYEGQLPVLAITDPDVIRTVLVKECYSVFTNRRSLGPVGFMKSAISLAEDEEWKRIRSLLSPTFTSGKLKEMFPIIAQYGDVLVRNLRREAEKGKPVTLKDIFGAYSMDVITGTSFGVNIDSLNNPQDPFVESTKKFLKFGFLDPLFLSIILFPFLTPVFEALNVSLFPKDTINFLSKSVNRMKKSRLNDKQKHRLDFLQLMIDSQNSKETESHKALSDLELAAQSIIFIFAGYETTSSVLSFTLYELATHPDVQQKLQKEIDAVLPNKAPPTYDAVVQMEYLDMVVNETLRLFPVAIRLERTCKKDVEINGVFIPKGSMVVIPTYALHHDPKYWTEPEEFRPERFSKKKDSIDPYIYTPFGTGPRNCIGMRFALMNMKLALIRVLQNFSFKPCKETQIPLKLDTQGLLQPEKPIVLKVDSRDGTLSGE
notes: purchased Cypex (Dundee, UK); host or cells: bactosomes (bacterial membranes)
Km (not read [4]): 8.5 (7.6–9.5) µM
